Experimental data reported in ChEMBL document CHEMBL1201862, “PubChem BioAssay data set” (2004).
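Results reflect a 48-hour exposure of cells in 96-well plates to compound at five concentrations. Here, GI50 denotes the concentration required for 50% inhibition of growth.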 Activity calls are given as the source filed them. Rule as the data show it: active = GI50 up to about 1.1 µM and inactive = higher.

Legend:
Assay in all cases: NCI anticancer screen, dose series, 48 h
A549 = system: A549
CCRF-CEM = system: CCRF-CEM
DU-145 = system: DU-145
HL-60 = system: HL-60
HT-29 = system: HT-29
K562 = system: K562
LOX IMVI = system: LOX IMVI
MCF7 = system: MCF7
MDA-MB-231 = system: MDA-MB-231
MDA-N = system: MDA-N
Malme-3M = system: Malme-3M
NCI-H23 = system: NCI-H23
NCI-H460 = system: NCI-H460
NCI/ADR-RES = system: NCI/ADR-RES
SK-MEL-5 = system: SK-MEL-5
SNB-75 = system: SNB-75
UACC-62 = system: UACC-62
SK-MEL-28 = system: SK-MEL-28
U-251 = system: U-251

| Structure (SMILES) | GI50 (A549) | GI50 (CCRF-CEM) | GI50 (DU-145) | GI50 (HL-60) | GI50 (HT-29) | GI50 (K562) | GI50 (LOX IMVI) | GI50 (MCF7) | GI50 (MDA-MB-231) | GI50 (MDA-N) | GI50 (Malme-3M) | GI50 (NCI-H23) | GI50 (NCI-H460) | GI50 (NCI/ADR-RES) | GI50 (SK-MEL-5) | GI50 (SNB-75) | GI50 (UACC-62) | GI50 (SK-MEL-28) | GI50 (U-251) |
| --- | --- | --- | --- | --- | --- | --- | --- | --- | --- | --- | --- | --- | --- | --- | --- | --- | --- | --- | --- |
| N#CCc1nc(-c2ccccc2)n[nH]1 | > 100 µM (inactive) | > 100 µM (inactive) | > 100 µM (inactive) | > 100 µM (inactive) | > 100 µM (inactive) | 76.6 µM (inactive) | > 100 µM (inactive) | > 100 µM (inactive) | > 100 µM (inactive) | > 100 µM (inactive) | > 100 µM (inactive) | > 100 µM (inactive) | > 100 µM (inactive) | > 100 µM (inactive) | > 100 µM (inactive) | > 100 µM (inactive) | > 100 µM (inactive) | – | – |
| CN1C2CCC1C(C(O)c1ccccc1[N+](=O)[O-])C(=O)C2 (centres undefined) | > 100 µM (inactive) | 46.9 µM (inactive) | 28.3 µM (inactive) | 31.8 µM (inactive) | 32.4 µM (inactive) | 32.1 µM (inactive) | 41.7 µM (inactive) | 39.1 µM (inactive) | 64 µM (inactive) | 27 µM (inactive) | > 100 µM (inactive) | 73.8 µM (inactive) | > 100 µM (inactive) | 23.4 µM (inactive) | 31.1 µM (inactive) | – | > 100 µM (inactive) | > 100 µM (inactive) | > 100 µM (inactive) |
| N=C(CC(=O)NOC(=O)c1ccccc1)NOC(=O)c1ccccc1 | 32.4 µM (inactive) | 38 µM (inactive) | > 100 µM (inactive) | 78.3 µM (inactive) | > 100 µM (inactive) | 28.5 µM (inactive) | 17.7 µM (inactive) | 25.8 µM (inactive) | > 100 µM (inactive) | 33.6 µM (inactive) | > 100 µM (inactive) | 69.7 µM (inactive) | 31.1 µM (inactive) | 25.5 µM (inactive) | 36.2 µM (inactive) | – | 25.9 µM (inactive) | 27.5 µM (inactive) | 34.1 µM (inactive) |
| CC(C)N/C(=N\C#N)NS(=O)(=O)c1cnccc1Nc1ccc(Cl)cc1 | > 100 µM (inactive) | > 100 µM (inactive) | > 100 µM (inactive) | – | > 100 µM (inactive) | > 100 µM (inactive) | – | > 100 µM (inactive) | > 100 µM (inactive) | > 100 µM (inactive) | > 100 µM (inactive) | > 100 µM (inactive) | – | > 100 µM (inactive) | > 100 µM (inactive) | > 100 µM (inactive) | > 100 µM (inactive) | > 100 µM (inactive) | > 100 µM (inactive) |
| O=C(NCCCNCCCCNCCCNC(=O)C(F)(F)F)C(F)(F)F | > 100 µM (inactive) | > 100 µM (inactive) | > 100 µM (inactive) | 46.1 µM (inactive) | > 100 µM (inactive) | – | > 100 µM (inactive) | > 100 µM (inactive) | > 100 µM (inactive) | > 100 µM (inactive) | > 100 µM (inactive) | > 100 µM (inactive) | > 100 µM (inactive) | > 100 µM (inactive) | > 100 µM (inactive) | > 100 µM (inactive) | > 100 µM (inactive) | > 100 µM (inactive) | > 100 µM (inactive) |
| CC(=O)OCCn1cnc2nc(Nc3ccccc3)nc(Cl)c21 | > 100 µM (inactive) | 69.2 µM (inactive) | > 100 µM (inactive) | 47.8 µM (inactive) | > 100 µM (inactive) | 49 µM (inactive) | 44.4 µM (inactive) | 46.8 µM (inactive) | 38.1 µM (inactive) | 36.1 µM (inactive) | > 100 µM (inactive) | > 100 µM (inactive) | 51.9 µM (inactive) | 95.3 µM (inactive) | 60.8 µM (inactive) | – | 44.1 µM (inactive) | > 100 µM (inactive) | 58.3 µM (inactive) |
| COC1(OC)CC(CO)(COc2cc(Cl)nc(N)n2)C1 | > 100 µM (inactive) | > 100 µM (inactive) | > 100 µM (inactive) | – | > 100 µM (inactive) | > 100 µM (inactive) | > 100 µM (inactive) | > 100 µM (inactive) | > 100 µM (inactive) | > 100 µM (inactive) | > 100 µM (inactive) | > 100 µM (inactive) | > 100 µM (inactive) | > 100 µM (inactive) | > 100 µM (inactive) | > 100 µM (inactive) | > 100 µM (inactive) | > 100 µM (inactive) | > 100 µM (inactive) |
| O=C(O)c1nc2cc(Cl)ccc2[nH]c1=O | > 100 µM (inactive) | > 100 µM (inactive) | > 100 µM (inactive) | > 100 µM (inactive) | > 100 µM (inactive) | > 100 µM (inactive) | > 100 µM (inactive) | > 100 µM (inactive) | > 100 µM (inactive) | > 100 µM (inactive) | > 100 µM (inactive) | > 100 µM (inactive) | > 100 µM (inactive) | > 100 µM (inactive) | > 100 µM (inactive) | – | > 100 µM (inactive) | > 100 µM (inactive) | > 100 µM (inactive) |
| CCOC(=O)c1ccc(Nc2nc3ccccc3nc2C(=O)OCC)cc1 | > 100 µM (inactive) | > 100 µM (inactive) | > 100 µM (inactive) | > 100 µM (inactive) | > 100 µM (inactive) | > 100 µM (inactive) | – | > 100 µM (inactive) | > 100 µM (inactive) | > 100 µM (inactive) | > 100 µM (inactive) | > 100 µM (inactive) | > 100 µM (inactive) | > 100 µM (inactive) | > 100 µM (inactive) | 24.7 µM (inactive) | > 100 µM (inactive) | > 100 µM (inactive) | > 100 µM (inactive) |
| COC(=O)CC1(O)C(/C=C/c2ccccc2)C(C(=O)OC)C(=O)C(C(=O)OC)C1C(=O)OC (centres undefined) | > 100 µM (inactive) | 48.3 µM (inactive) | > 100 µM (inactive) | > 100 µM (inactive) | > 100 µM (inactive) | > 100 µM (inactive) | 26.7 µM (inactive) | 96.8 µM (inactive) | > 100 µM (inactive) | 44 µM (inactive) | > 100 µM (inactive) | > 100 µM (inactive) | > 100 µM (inactive) | 85.3 µM (inactive) | > 100 µM (inactive) | – | 81.1 µM (inactive) | > 100 µM (inactive) | 79.3 µM (inactive) |
| COC(=O)C1=CO[C@@H](OC2OC(CO)C(O)C(O)C2O)[C@@H]2[C@H](C)[C@@H](O)[C@@H](O)[C@]12O (some centres undefined) | > 100 µM (inactive) | > 10 µM (inactive) | > 100 µM (inactive) | > 100 µM (inactive) | > 100 µM (inactive) | – | > 100 µM (inactive) | > 100 µM (inactive) | 34.8 µM (inactive) | > 100 µM (inactive) | > 100 µM (inactive) | > 100 µM (inactive) | – | > 100 µM (inactive) | > 100 µM (inactive) | 33 µM (inactive) | > 100 µM (inactive) | > 100 µM (inactive) | > 100 µM (inactive) |
| CCCCCCCCCc1c(O)c(O)c(CCCCCCCCC)c(CCCCCCCCC)c1CCCCCCCCC | > 100 µM (inactive) | 31 µM (inactive) | > 100 µM (inactive) | 26.4 µM (inactive) | > 100 µM (inactive) | 65.9 µM (inactive) | > 100 µM (inactive) | 8.18 µM (inactive) | > 100 µM (inactive) | 50.6 µM (inactive) | 96.8 µM (inactive) | > 100 µM (inactive) | > 100 µM (inactive) | > 100 µM (inactive) | > 100 µM (inactive) | – | > 100 µM (inactive) | > 100 µM (inactive) | > 100 µM (inactive) |
| Cc1ccc(OCC2OC(n3cnc4c(Br)nc(Br)nc43)CC2Oc2ccc(C)cc2)cc1 (centres undefined) | 12.6 µM (inactive) | 2.7 µM (inactive) | 2.38 µM (inactive) | 1.91 µM (inactive) | 2.9 µM (inactive) | 2.57 µM (inactive) | 1.93 µM (inactive) | 4.32 µM (inactive) | 2.12 µM (inactive) | 2.94 µM (inactive) | 3.58 µM (inactive) | 4.55 µM (inactive) | – | 9.59 µM (inactive) | 6.31 µM (inactive) | 3.09 µM (inactive) | 7.35 µM (inactive) | 4.51 µM (inactive) | 2.24 µM (inactive) |
| CC(C)(C)C(=O)N(C(=S)OCc1ccccn1)c1ccccc1 | – | 22.6 µM (inactive) | 38.6 µM (inactive) | 19.9 µM (inactive) | 27.6 µM (inactive) | 36.7 µM (inactive) | 23.9 µM (inactive) | 19.8 µM (inactive) | 31 µM (inactive) | 41.6 µM (inactive) | 13.8 µM (inactive) | 35.3 µM (inactive) | – | 23.1 µM (inactive) | 20 µM (inactive) | – | 63 µM (inactive) | > 100 µM (inactive) | 42 µM (inactive) |
| COc1cc([C@@H]2c3cc4c(cc3[C@@H](Nc3ccc(NC(=O)c5cc(NC(=O)c6cc([N+](=O)[O-])cn6C)cn5C)cc3)[C@H]3COC(=O)[C@H]23)OCO4)cc(OC)c1O | 0.239 µM (active) | 0.154 µM (active) | 0.374 µM (active) | 0.16 µM (active) | 0.355 µM (active) | 0.0493 µM (active) | 0.274 µM (active) | 0.047 µM (active) | > 38.8 µM (inactive) | 0.0308 µM (active) | 4.35 µM (inactive) | 0.465 µM (active) | 0.0303 µM (active) | 0.573 µM (active) | 0.188 µM (active) | 4.89 µM (inactive) | 0.453 µM (active) | – | 10.3 µM (inactive) |
